Values of other authors as cited in paper PMC8854719, “Phase 1A/1B dose-escalation and -expansion study to evaluate the safety, pharmacokinetics, food effects and antitumor activity of pamiparib in advanced solid tumours” (British Journal of Cancer, 2021).

Legend:
[1] = tested on: BRCA1-mutant breast cancer xenograft model; parameters: method as in PMID 32652442; settings: cited from earlier work
[2] = tested on: ovarian cancer; settings: Phase 1 study in China (NCT03333915), high-grade ovarian cancer refractory or resistant to platinum; cited from earlier work

Structure (SMILES): C[C@]12CCCN1CC1=NNC(=O)c3cc(F)cc4[nH]c2c1c34 [pamiparib]
- Efficacy (tumour regression) compared with olaparib [1]: 16 fold
- Clinical benefit rate [2]: 62.5%
- ORR [2]: 25.0%
